Assay results from patent publication US4359461A, “Mono-, di- and tri-adamantylcarbonyl- digalactopyranosyl- glucopyranosyl- fructofuranose sulfate salts” (American Cyanamid Company, priority 1981, dated 1982).
Where a name gives a salt, the structure may show the parent alone.

How the values were obtained:
[1] = test system: shunt pathway; assay: Test Code 036 (C-Shunt inhibitor), lysis of human erythrocytes in autologous serum via shunt pathway activated by cobra venom factor; format: biochemical; details: activity in wells, serial dilution assay; higher well number indicates higher activity
Excerpt: (§1) An active inhibitor protects C2 from C1 and C4; (ii) Test Code 035 (C3-C9 inhibitor)--This test determines the ability of the late components of human complement (C3-C9) to lyse EAC 142 in the presence of appropriate dilutions of the test compound. An active inhibitor protects EAC 142 from lysis by human C3-C9; (iii) Test Code 036 (C-Shunt inhibitor)--In this test human erythrocytes rendered fragile are lysed in autologous serum via the shunt pathway activated by cobra venom factor in the presence of appropriate dilutions of the test compound. Inhibition of the shunt pathway results in failure of lysis; (iv) Cap 50 Test--Here, appropriate amounts of the test compound are added to a pool of guinea pig serum in vitro, after which the complement level is determined in undiluted serum by the serum capillary tube assay of U.S. Pat. No. 3,876,376. The concentration of compound inhibiting 50% is reported; and (v) Guinea Pig Intraperitoneal Test (GPIP)--Guinea pigs weighing about 300 g are dosed intraperitoneally (i.p.) with 200 mg/kg of the test compound dissolved in saline and adjusted to pH 7-8. Approximately […], taken by orbital sinus puncture 30 minutes and one hour after injections, are collected directly into centrifuge tubes; 5 ml blood samples, taken by decapitation 2 hours after injection, are collected directly into diSPo® beakers. The samples were allowed to clot, centrifuged, and the resultant sera were assayed for complement activity using the capilllary complement assay. Percent inhibition is calculated by comparison with simultaneous controls. The results of the GPIP appear in Table I together with results of Test Code 026, 035, 036 and Cap 50.

[2] = biological target: activated human C1 (Homo sapiens, UniProt P09871); assay: Test Code 026 (C1 inhibitor); format: biochemical; details: activity in wells, serial dilution assay; higher well number indicates higher activity
Excerpt: as §1

[3] = test system: complement activity of sera; assay: Guinea Pig Intraperitoneal Test (GPIP); format: in vivo; details: 200 mg/kg i.p.
Excerpt: as §1

[4] = test system: late components of human complement (C3-C9); assay: Test Code 035 (C3-C9 inhibitor), lysis of EAC 142; format: biochemical; details: activity in wells, serial dilution assay; higher well number indicates higher activity
Excerpt: as §1

## O=C(OC[C@H]1O[C@H](OC[C@H]2O[C@H](OC[C@H]3O[C@H](O[C@]4(COC(=O)C56CC7CC(CC(C7)C5)C6)O[C@H](COC(=O)C56CC7CC(CC(C7)C5)C6)[C@@H](OS(=O)(=O)O)[C@@H]4OS(=O)(=O)O)[C@H](OS(=O)(=O)O)[C@@H](OS(=O)(=O)O)[C@@H]3OS(=O)(=O)O)[C@H](OS(=O)(=O)O)[C@@H](OS(=O)(=O)O)[C@H]2OS(=O)(=O)O)[C@H](OS(=O)(=O)O)[C@@H](OS(=O)(=O)O)[C@H]1OS(=O)(=O)O)C12CC3CC(CC(C3)C1)C2 [1,6-Bis-O-(1-adamantylcarbonyl)-β-D-fructofuranosyl-6-O-1-adamantylcarbonyl-O-α-D-galactopyranosyl(1→6)-O-α-D-galactopyranosyl(1→6)-α-D-glucopyranoside, undecakis(H-sulfate), undecasodium salt]
[1]
  C-Shunt Inhibition 036 Wells: +3 Wells
[2]
  C1 026 Wells: +6 Wells
[3]; 30 minutes
  In Vivo Activity (Guinea pig) % Inhibition Intraperitoneal: 11%
[3]; 60 minutes
  In Vivo Activity (Guinea pig) % Inhibition Intraperitoneal: 12%
[3]; 120 minutes
  In Vivo Activity (Guinea pig) % Inhibition Intraperitoneal: 72%
[4]
  C-Late 035 Wells: +1 Wells

## O=C(OC[C@H]1O[C@H](OC[C@H]2O[C@H](OC[C@H]3O[C@H](O[C@]4(COS(=O)(=O)O)O[C@H](COC(=O)C56CC7CC(CC(C7)C5)C6)[C@@H](OS(=O)(=O)O)[C@@H]4OS(=O)(=O)O)[C@H](OS(=O)(=O)O)[C@@H](OS(=O)(=O)O)[C@@H]3OS(=O)(=O)O)[C@H](OS(=O)(=O)O)[C@@H](OS(=O)(=O)O)[C@H]2OS(=O)(=O)O)[C@H](OS(=O)(=O)O)[C@@H](OS(=O)(=O)O)[C@H]1OS(=O)(=O)O)C12CC3CC(CC(C3)C1)C2 [6,6'"-Di-1-adamantanecarboxylate-O--α-D-galactopyranosyl(1→6] [6,6'"-Di-1-adamantanecarboxylate-O-α-D-galactopyranosyl(1→6)-O-α-D-galactopyranosyl(1→6)-O-α-D-glucopyranosyl-β-D-fructofuranose, dodecakis(H-sulfate), dodecasalt with trimethylamine]
[1]
  C-Shunt Inhibition 036 Wells: +3 Wells
[2]
  C1 026 Wells: +9 Wells
[4]
  C-Late 035 Wells: +1 Wells

## O=C(OC[C@H]1O[C@H](OC[C@H]2O[C@H](OC[C@H]3O[C@H](O[C@]4(COS(=O)(=O)O)O[C@H](COC(=O)C56CC7CC(CC(C7)C5)C6)[C@@H](OS(=O)(=O)O)[C@@H]4OS(=O)(=O)O)[C@H](OS(=O)(=O)O)[C@@H](OS(=O)(=O)O)[C@@H]3OS(=O)(=O)O)[C@H](OS(=O)(=O)O)[C@@H](OS(=O)(=O)O)[C@H]2OS(=O)(=O)O)[C@H](OS(=O)(=O)O)[C@@H](OS(=O)(=O)O)[C@H]1OS(=O)(=O)O)C12CC3CC(CC(C3)C1)C2 [6,6'"-Di-1-admantanecarboxylate-O--α-D-galactopyranosyl(1→6)] [6,6'"-Di-1-adamantanecarboxylate-O-α-D-galactopyranosyl(1→6)-O-α-D-galactopyranosyl(1→6)-O-α-D-glucopyranosyl-β-D-fructofuranose, dodecakis(H-sulfate), dodecasodium salt]
[1]
  C-Shunt Inhibition 036 Wells: +2 Wells
[3]; 30 minutes
  In Vivo Activity (Guinea pig) % Inhibition Intraperitoneal: 72%
[3]; 60 minutes
  In Vivo Activity (Guinea pig) % Inhibition Intraperitoneal: 92%
[3]; 120 minutes
  In Vivo Activity (Guinea pig) % Inhibition Intraperitoneal: 97%

## O=C(OC[C@H]1O[C@@](COS(=O)(=O)O)(O[C@H]2O[C@H](CO[C@H]3O[C@H](CO[C@H]4O[C@H](COS(=O)(=O)O)[C@H](OS(=O)(=O)O)[C@H](OS(=O)(=O)O)[C@H]4OS(=O)(=O)O)[C@H](OS(=O)(=O)O)[C@H](OS(=O)(=O)O)[C@H]3OS(=O)(=O)O)[C@@H](OS(=O)(=O)O)[C@H](OS(=O)(=O)O)[C@H]2OS(=O)(=O)O)[C@@H](OS(=O)(=O)O)[C@@H]1OS(=O)(=O)O)C12CC3CC(CC(C3)C1)C2 [6-O-(1-Adamantylcarbonyl)-β-D-fructofuranosyl-O-α-D-galactopyranosyl(1→6)-O-α-D-galactopyranosyl(1→6)-α-D-glucopyranoside, tridecakis(H-sulfate), tridecasalt with trimethylamine]
[1]
  C-Shunt Inhibition 036 Wells: +5 Wells

## O=C(OC[C@H]1O[C@@](COS(=O)(=O)O)(O[C@H]2O[C@H](CO[C@H]3O[C@H](CO[C@H]4O[C@H](COS(=O)(=O)O)[C@H](OS(=O)(=O)O)[C@H](OS(=O)(=O)O)[C@H]4OS(=O)(=O)O)[C@H](OS(=O)(=O)O)[C@H](OS(=O)(=O)O)[C@H]3OS(=O)(=O)O)[C@@H](OS(=O)(=O)O)[C@H](OS(=O)(=O)O)[C@H]2OS(=O)(=O)O)[C@@H](OS(=O)(=O)O)[C@@H]1OS(=O)(=O)O)C12CC3CC(CC(C3)C1)C2 [6-O--(1-Adamantylcarbonyl)-β-D-fructofuranosyl-O--α-D-galact] [6-O-(1-Adamantylcarbonyl)-β-D-fructofuranosyl-O-α-D-galactopyranosyl(1→6)-O-α-D-galactopyranosyl(1→6)-α-D-glucopyranoside, tridecakis(H-sulfate), tridecasalt with trimethylamine]
[2]
  C1 026 Wells: +10 Wells

## O=C(OC[C@H]1O[C@@](COS(=O)(=O)O)(O[C@H]2O[C@H](CO[C@H]3O[C@H](CO[C@H]4O[C@H](COS(=O)(=O)O)[C@H](OS(=O)(=O)O)[C@H](OS(=O)(=O)O)[C@H]4OS(=O)(=O)O)[C@H](OS(=O)(=O)O)[C@H](OS(=O)(=O)O)[C@H]3OS(=O)(=O)O)[C@@H](OS(=O)(=O)O)[C@H](OS(=O)(=O)O)[C@H]2OS(=O)(=O)O)[C@@H](OS(=O)(=O)O)[C@@H]1OS(=O)(=O)O)C12CC3CC(CC(C3)C1)C2 [6-O--(1-Adamantylcarbonyl)-β-D-fructofuranosyl-O--α-D-galact] [6-O-(1-Adamantylcarbonyl)-β-D-fructofuranosyl-O-α-D-galactopyranosyl(1→6)-O-α-D-galactopyranosyl(1→6)-α-D-glucopyranoside, tridecakis(H-sulfate), tridecasodium salt]
[3]; 2 hours
  In Vivo Activity (Guinea pig) % Inhibition Intraperitoneal: 78%
[3]; 6 hours
  In Vivo Activity (Guinea pig) % Inhibition Intraperitoneal: 71%
[3]; 24 hours
  In Vivo Activity (Guinea pig) % Inhibition Intraperitoneal: 59%
[4]
  C-Late 035 Wells: +2 Wells
